ChEMBL document CHEMBL5030517, “6-Halopyridylmethylidene Penicillin-Based Sulfones Efficiently Inactivate the Natural Resistance of Pseudomonas aeruginosa to β-Lactam Antibiotics” (J Med Chem, 2021)
Converted amounts (≈) assume the structure as drawn. The source made the active and inactive calls. The rule behind the calls is not given here.

Assays:
[1] = Inhibition beta lactamase PDC-1 in Pseudomonas aeruginosa PAO1 using nitrocefin as substrate measured by 96 well microtitre plate
[2] = test system: Pseudomonas aeruginosa PAO1; assay: Inhibition of beta-lactamase activity in Pseudomonas aeruginosa PAO1 assessed as MIC for cefpodoxime antibacterial activity at 16 mg/L by broth microdilution method
[3] = test system: Pseudomonas aeruginosa PAO1; assay: Inhibition of beta-lactamase activity in Pseudomonas aeruginosa PAO1 deltadacBdeltadacC assessed as MIC for cefpodoxime antibacterial activity at 4 mg/L by broth microdilution method
[4] = test system: Pseudomonas aeruginosa PAO1; assay: Inhibition of beta-lactamase activity in Pseudomonas aeruginosa PAO1 23/14-053 (ST-309) assessed as MIC for cefpodoxime antibacterial activity at 16 mg/L by broth microdilution method
[5] = test system: Pseudomonas aeruginosa PAO1; assay: Inhibition of beta-lactamase activity in Pseudomonas aeruginosa PAO1 13/09-018 (ST-175) assessed as MIC for cefpodoxime antibacterial activity at 16 mg/L by broth microdilution method
[6] = test system: Pseudomonas aeruginosa PAO1; assay: Inhibition of beta-lactamase activity in Pseudomonas aeruginosa PAO1 deltaDdeltsDh2deltaDh3 assessed as MIC for cefpodoxime antibacterial activity at 4 mg/L by broth microdilution method
[7] = test system: Pseudomonas aeruginosa PAO1; assay: Inhibition of beta-lactamase activity in Pseudomonas aeruginosa PAO1 assessed as MIC for cefpodoxime antibacterial activity at 4 mg/L by broth microdilution method
[8] = test system: Pseudomonas aeruginosa PAO1; assay: Inhibition of beta-lactamase activity in Pseudomonas aeruginosa PAO1 deltaC assessed as MIC for cefpodoxime antibacterial activity at 16 mg/L by broth microdilution method
[9] = test system: Pseudomonas aeruginosa PAO1; assay: Inhibition beta lactamase PDC-1 in Pseudomonas aeruginosa PAO1 assessed as maximum rate of inactivation using nitrocefin as substrate measured by 96 well microtitre plate
[10] = test system: Pseudomonas aeruginosa PAO1; assay: Inhibition of beta-lactamase activity in Pseudomonas aeruginosa PAO1 6/04-224 (ST-175) assessed as MIC for cefpodoxime antibacterial activity at 4 mg/L by broth microdilution method
[11] = Inhibition beta lactamase PDC-1 in Pseudomonas aeruginosa PAO1 assessed as apparent inhibition constant using nitrocefin as substrate measured by 96 well microtitre plate; conditions: read-out: Ki(app)
[12] = test system: Pseudomonas aeruginosa PAO1; assay: Inhibition of beta-lactamase activity in Pseudomonas aeruginosa PAO1 deltadacB assessed as MIC for cefpodoxime antibacterial activity at 4 mg/L by broth microdilution method
[13] = test system: Pseudomonas aeruginosa PAO1; assay: Inhibition of beta-lactamase activity in Pseudomonas aeruginosa PAO1 deltaC+pUCP-(PDC-1) assessed as MIC for cefpodoxime antibacterial activity at 16 mg/L by broth microdilution method
[14] = test system: Pseudomonas aeruginosa PAO1; assay: Inhibition of beta-lactamase activity in Pseudomonas aeruginosa PAO1 deltadacBdeltapbpGdeltadacC assessed as MIC for cefpodoxime antibacterial activity at 4 mg/L by broth microdilution method
[15] = test system: Pseudomonas aeruginosa PAO1; assay: Inhibition of beta-lactamase activity in Pseudomonas aeruginosa PAO1 PAHUAC-14 (ST-966) assessed as MIC for cefpodoxime antibacterial activity at 16 mg/L by broth microdilution method
Pseudomonas aeruginosa = assay: Inhibition of beta lactamase PDC-1 in Pseudomonas aeruginosa PAO1 for 30 min using MALDI TOF-MS analysis
[16] = test system: Pseudomonas aeruginosa PAO1; assay: Inhibition of beta-lactamase activity in Pseudomonas aeruginosa PAO1 PAHUAC-27(ST-22) assessed as MIC for cefpodoxime antibacterial activity at 16 mg/L by broth microdilution method
[17] = test system: Pseudomonas aeruginosa PAO1; assay: Inhibition beta lactamase PDC-1 in Pseudomonas aeruginosa PAO1 assessed as inactivation efficiency by measuring acylation rate (k2/K) using nitrocefin as substrate measured by 96 well microtitre plate
[18] = test system: Pseudomonas aeruginosa PAO1; assay: Inhibition of beta-lactamase activity in Pseudomonas aeruginosa PAO1 deltaC+pUCP-(PDC-1) assessed as MIC for cefpodoxime antibacterial activity at 4 mg/L by broth microdilution method
[19] = test system: Pseudomonas aeruginosa PAO1; assay: Inhibition of beta-lactamase activity in Pseudomonas aeruginosa PAO1 deltaC assessed as MIC for cefpodoxime antibacterial activity at 4 mg/L by broth microdilution method
[20] = test system: Pseudomonas aeruginosa PAO1; assay: Inhibition of beta-lactamase activity in Pseudomonas aeruginosa PAO1 13/09-018 (ST-175) assessed as MIC for cefpodoxime antibacterial activity at 4 mg/L by broth microdilution method
[21] = test system: Pseudomonas aeruginosa PAO1; assay: Inhibition of beta-lactamase activity in Pseudomonas aeruginosa PAO1 36/14-210 (ST-235) assessed as MIC for cefpodoxime antibacterial activity at 4 mg/L by broth microdilution method
[22] = test system: Pseudomonas aeruginosa PAO1; assay: Inhibition beta lactamase PDC-1 in Pseudomonas aeruginosa PAO1 assessed as deacylation off-rate using nitrocefin as substrate at 30 mins measured by 96 well microtitre plate
[23] = test system: Pseudomonas aeruginosa PAO1; assay: Inhibition of beta-lactamase activity in Pseudomonas aeruginosa PAO1 deltadacBdeltadacC assessed as MIC for cefpodoxime antibacterial activity at 16 mg/L by broth microdilution method
[24] = test system: Pseudomonas aeruginosa PAO1; assay: Inhibition of beta-lactamase activity in Pseudomonas aeruginosa PAO1 17/14-017 (ST-235) assessed as MIC for cefpodoxime antibacterial activity at 16 mg/L by broth microdilution method
[25] = test system: Pseudomonas aeruginosa PAO1; assay: Inhibition of beta-lactamase activity in Pseudomonas aeruginosa PAO1 deltaampD assessed as MIC for cefpodoxime antibacterial activity at 16 mg/L by broth microdilution method
[26] = test system: Pseudomonas aeruginosa PAO1; assay: Inhibition of beta-lactamase activity in Pseudomonas aeruginosa PAO1 23/14-053 (ST-309) assessed as MIC for cefpodoxime antibacterial activity at 4 mg/L by broth microdilution method
[27] = test system: Pseudomonas aeruginosa PAO1; assay: Inhibition of beta-lactamase activity in Pseudomonas aeruginosa PAO1 PAHUAC-27(ST-22) assessed as MIC for cefpodoxime antibacterial activity at 4 mg/L by broth microdilution method
[28] = test system: Pseudomonas aeruginosa PAO1; assay: Inhibition of beta-lactamase activity in Pseudomonas aeruginosa PAO1 deltadacBdeltaampD assessed as MIC for cefpodoxime antibacterial activity at 16 mg/L by broth microdilution method
[29] = test system: Pseudomonas aeruginosa PAO1; assay: Inhibition of beta-lactamase activity in Pseudomonas aeruginosa PAO1 deltaDdeltsDh2deltaDh3 assessed as MIC for cefpodoxime antibacterial activity at 16 mg/L by broth microdilution method
[30] = test system: Pseudomonas aeruginosa PAO1; assay: Inhibition of beta-lactamase activity in Pseudomonas aeruginosa PAO1 PAHUAC-14 (ST-966) assessed as MIC for cefpodoxime antibacterial activity at 4 mg/L by broth microdilution method
[31] = test system: Pseudomonas aeruginosa PAO1; assay: Inhibition of beta-lactamase activity in Pseudomonas aeruginosa PAO1 deltaC+pUCP-(PDC-5) assessed as MIC for cefpodoxime antibacterial activity at 4 mg/L by broth microdilution method
[32] = test system: Pseudomonas aeruginosa PAO1; assay: Inhibition of beta-lactamase activity in Pseudomonas aeruginosa PAO1 53/22-113 (ST-244) assessed as MIC for cefpodoxime antibacterial activity at 4 mg/L by broth microdilution method
[33] = test system: Pseudomonas aeruginosa PAO1; assay: Inhibition of beta-lactamase activity in Pseudomonas aeruginosa PAO1 deltadacBdeltaampD assessed as MIC for cefpodoxime antibacterial activity at 4 mg/L by broth microdilution method
[34] = test system: Pseudomonas aeruginosa PAO1; assay: Inhibition of beta-lactamase activity in Pseudomonas aeruginosa PAO1 6/04-224 (ST-175) assessed as MIC for cefpodoxime antibacterial activity at 16 mg/L by broth microdilution method
[35] = test system: Pseudomonas aeruginosa PAO1; assay: Inhibition of beta-lactamase activity in Pseudomonas aeruginosa PAO1 17/14-017 (ST-235) assessed as MIC for cefpodoxime antibacterial activity at 4 mg/L by broth microdilution method
[36] = test system: Pseudomonas aeruginosa PAO1; assay: Inhibition of beta-lactamase activity in Pseudomonas aeruginosa PAO1 deltadacB assessed as MIC for cefpodoxime antibacterial activity at 16 mg/L by broth microdilution method
[37] = test system: Pseudomonas aeruginosa PAO1; assay: Inhibition of beta-lactamase activity in Pseudomonas aeruginosa PAO1 36/14-210 (ST-235) assessed as MIC for cefpodoxime antibacterial activity at 16 mg/L by broth microdilution method
[38] = test system: Pseudomonas aeruginosa PAO1; assay: Inhibition of beta-lactamase activity in Pseudomonas aeruginosa PAO1 deltaC+pUCP-(PDC-5) assessed as MIC for cefpodoxime antibacterial activity at 16 mg/L by broth microdilution method
[39] = test system: Pseudomonas aeruginosa PAO1; assay: Inhibition beta lactamase PDC-1 in Pseudomonas aeruginosa PAO1 assessed as ratio of kinact/K1 using nitrocefin as substrate measured by 96 well microtitre plate
[40] = test system: Pseudomonas aeruginosa PAO1; assay: Inhibition of beta-lactamase activity in Pseudomonas aeruginosa PAO1 deltadacBdeltapbpGdeltadacC assessed as MIC for cefpodoxime antibacterial activity at 16 mg/L by broth microdilution method
[41] = test system: Pseudomonas aeruginosa PAO1; assay: Inhibition of beta-lactamase activity in Pseudomonas aeruginosa PAO1 53/22-113 (ST-244) assessed as MIC for cefpodoxime antibacterial activity at 16 mg/L by broth microdilution method
[42] = test system: Pseudomonas aeruginosa PAO1; assay: Inhibition of beta-lactamase activity in Pseudomonas aeruginosa PAO1 deltaampD assessed as MIC for cefpodoxime antibacterial activity at 4 mg/L by broth microdilution method
[43] = test system: Pseudomonas aeruginosa PAO1; assay: Inhibition beta lactamase PDC-1 in Pseudomonas aeruginosa PAO1 assessed half life of nitrocefin substrate measured by 96 well microtitre plate assay
[44] = test system: Pseudomonas aeruginosa PAO1; assay: Inhibition of beta lactamase PDC-1 in Pseudomonas aeruginosa PAO1 assessed as reduction in enzyme activity using nitrocefin as chromogenic substrate preincubated for 10 min using 96 well microtiter plate

In the case of O=C(O)[C@H]1/C(=C/CO)O[C@@H]2CC(=O)N21 [CLAVULANIC ACID], the IC50 [1] is reported as > 200000 nM.
For CC1(C)[C@H](C(=O)O)N2C(=O)C[C@H]2S1(=O)=O [SULBACTAM], the IC50 [1] was 4370 nM.
Compound C[C@]1(COC(=O)Cc2ccc(O)c(O)c2)[C@H](C(=O)O)N2C(=O)/C(=C/c3ccccn3)[C@H]2S1(=O)=O has an MIC [2] of 1 µg/mL (≈ 2.05 µM), an MIC [3] of 1 µg/mL (≈ 2.05 µM) and an MIC [4] of 1 µg/mL (≈ 2.05 µM). It also gave an MIC [5] of 8 µg/mL (≈ 16.4 µM), an MIC [6] of 4 µg/mL (≈ 8.19 µM) and an MIC [7] of 1 µg/mL (≈ 2.05 µM). For the same compound, the MIC [8] was 1 µg/mL (≈ 2.05 µM), the Kinact [9] was 0.046 s⁻¹ and the MIC [10] was 8 µg/mL (≈ 16.4 µM). It also gave a Ki [11] of 53 nM, an MIC [12] of 1 µg/mL (≈ 2.05 µM) and an MIC [13] of 1 µg/mL (≈ 2.05 µM). It also gave an MIC [14] of 1 µg/mL (≈ 2.05 µM), an MIC [15] of 2 µg/mL (≈ 4.09 µM) and an IC50 [1] of 6.1 nM. The inhibition (Pseudomonas aeruginosa) was “inactive”, the MIC [16] was 1 µg/mL (≈ 2.05 µM) and the k2/K inactivation efficiency [17] was 1.5 M⁻¹ s⁻¹. The MIC [18] was 1 µg/mL (≈ 2.05 µM), the MIC [19] was 1 µg/mL (≈ 2.05 µM) and the MIC [20] was 2 µg/mL (≈ 4.09 µM). The MIC [21] was 16 µg/mL (≈ 32.8 µM), the K [22] was 9 10^-2/min and the MIC [23] was 0.5 µg/mL (≈ 1.02 µM). It also gave an MIC [24] of 2 µg/mL (≈ 4.09 µM), an MIC [25] of 1 µg/mL (≈ 2.05 µM) and an MIC [26] of 1 µg/mL (≈ 2.05 µM). For the same compound, the MIC [27] was 2 µg/mL (≈ 4.09 µM), the MIC [28] was 1 µg/mL (≈ 2.05 µM) and the MIC [29] was 0.5 µg/mL (≈ 1.02 µM). For the same compound, the MIC [30] was 16 µg/mL (≈ 32.8 µM), the MIC [31] was 2 µg/mL (≈ 4.09 µM) and the MIC [32] was 8 µg/mL (≈ 16.4 µM). For the same compound, the MIC [33] was 8 µg/mL (≈ 16.4 µM), the MIC [34] was 8 µg/mL (≈ 16.4 µM) and the MIC [35] was 2 µg/mL (≈ 4.09 µM). The MIC [36] was 0.5 µg/mL (≈ 1.02 µM), the MIC [37] was 8 µg/mL (≈ 16.4 µM) and the MIC [38] was 2 µg/mL (≈ 4.09 µM). For the same compound, the K [39] was 6.3 10^5/M/s, the MIC [40] was 0.5 µg/mL (≈ 1.02 µM) and the MIC [41] was 4 µg/mL (≈ 8.19 µM). For the same compound, the MIC [42] was 2 µg/mL (≈ 4.09 µM), the T1/2 [43] was 1.37 h and the inhibition [44] was “inactive”.
